Test results reported in ChEMBL document CHEMBL4699560, “Synthesis and Stereochemical Assignment of Conioidine A: DNA- and HSA-Binding Studies of the Four Diastereomers” (J Nat Prod, 2020).

Key:
[1] = molecular target: T1, Albumin (Homo sapiens, UniProt P02768); assay: Binding affinity to human serum albumin […]; format: ADME, cell-free
[2] = molecular target: T1, Albumin; assay: Binding affinity to human serum albumin assessed as quenching constant by Stern-Volmer plot analysis; format: ADME, cell-free
[3] = tested on: Calf thymus DNA; assay: Displacement of EtBr from calf thymus DNA incubated for 3 mins by fluorescence based assay; format: tissue-based; details: Bos taurus
[4] = tested on: Calf thymus DNA; assay: Binding affinity to calf thymus DNA assessed as change in melting temperature at DNA to ligand ratio at 40:1 by spectrophotometric method; format: tissue-based; details: Bos taurus
[5] = tested on: Calf thymus DNA; assay: Displacement of EtBr from calf thymus DNA assessed per base pair incubated for 3 mins by fluorescence based assay; format: tissue-based; details: Bos taurus
[6] = tested on: Calf thymus DNA; assay: Displacement of EtBr from calf thymus DNA at 50 uM incubated for 3 mins by fluorescence based assay relative to control; format: tissue-based; details: Bos taurus

T1 sequence (P02768 whole entry): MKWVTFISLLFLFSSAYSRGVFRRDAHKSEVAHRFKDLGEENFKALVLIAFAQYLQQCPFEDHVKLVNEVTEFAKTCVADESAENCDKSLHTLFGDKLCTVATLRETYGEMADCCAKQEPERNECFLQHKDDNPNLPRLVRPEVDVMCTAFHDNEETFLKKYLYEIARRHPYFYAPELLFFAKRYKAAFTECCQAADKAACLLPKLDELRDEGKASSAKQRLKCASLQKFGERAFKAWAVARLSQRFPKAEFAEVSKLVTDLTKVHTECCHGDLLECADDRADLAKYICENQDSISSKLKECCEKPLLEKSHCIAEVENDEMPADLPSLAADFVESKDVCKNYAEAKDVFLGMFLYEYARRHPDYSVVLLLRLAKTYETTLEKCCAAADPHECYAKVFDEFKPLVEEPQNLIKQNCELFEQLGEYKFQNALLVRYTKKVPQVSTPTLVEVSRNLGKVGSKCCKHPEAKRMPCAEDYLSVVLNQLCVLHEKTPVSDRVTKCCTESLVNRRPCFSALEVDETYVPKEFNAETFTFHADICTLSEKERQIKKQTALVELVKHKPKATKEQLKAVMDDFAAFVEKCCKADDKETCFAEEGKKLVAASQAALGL

Row | SMILES | Kb [1] | KSV [2] | C50 [3] | ΔTm [4] | Kapp [5] | Activity [6]
1 | OC[C@H]1O[C@H](O)[C@H](O)[C@@H](O)[C@@H]1O |  |  | 390 µM | 10.3 °C |  | 
2 | Cn1cc(NC(=O)c2cc(NC(=O)CNC(=N)N)cn2C)cc1C(=O)NCCC(=N)N |  |  | 10 µM | 0.7 °C | 5.1 10^6/M | 
3 | C/C=C(\C)C(=O)O[C@H](C)C[C@H]1CCCN1C(=O)CCCCCCCCC | 6.4 10^4/M | 7.2 10^5/M | 480 µM |  | 1.8 10^5/M | 93%

Continued, in another order:

Row | Kb [1] | KSV [2] | SMILES | C50 [3] | ΔTm [4] | Kapp [5] | Activity [6]
4 | 5.9 10^4/M | 3 10^4/M | C/C=C(\C)C(=O)O[C@H](C)C[C@@H]1CCCN1C(=O)CCCCCCCCC | 380 µM |  |  | 
5 | 7.2 10^4/M | 3 10^4/M | C/C=C(\C)C(=O)O[C@@H](C)C[C@@H]1CCCN1C(=O)CCCCCCCCC | 470 µM |  |  | 
6 | 16 10^4/M | 1.3 10^5/M | C/C=C(\C)C(=O)O[C@@H](C)C[C@H]1CCCN1C(=O)CCCCCCCCC | 340 µM |  |  | 
